One data set addresses Translocator protein (Rattus norvegicus, UniProt P16257). The experiment in a line: Displacement of [3H]PK11195 from TSPO in rat kidney mitochondrial membrane. On the technique in general: In a radioligand displacement assay an active substance lowers the binding of a labelled ligand.
In data set [1] the test system is GABA-A receptor, central benzodiazepine site (Rattus norvegicus). The experiment in a line: Displacement of [3H]flumazenil from central benzodiazepine site of GABA-A receptor in rat cerebral cortex membrane after 90 mins.
Data set [2] in a line: Drug level in monkey putamen at 0.155 to 0.859 nmol/kg, iv after 40 mins. It counts as ADME, organism-based, Macaca mulatta. The following applies: rhesus monkey, in vivo.
The next data set has as its system Plasma. Put plainly: Fraction unbound in monkey plasma at 0.155 to 0.859 nmol/kg, iv by PET analysis. It counts as ADME, organism-based, Macaca mulatta. Conditions: rhesus monkey, in vivo.

The structures appear in SMILES notation. The source made the active and inactive calls. The rule behind the calls is not given here.

Translocator protein, sequence (P16257 whole entry, looked up): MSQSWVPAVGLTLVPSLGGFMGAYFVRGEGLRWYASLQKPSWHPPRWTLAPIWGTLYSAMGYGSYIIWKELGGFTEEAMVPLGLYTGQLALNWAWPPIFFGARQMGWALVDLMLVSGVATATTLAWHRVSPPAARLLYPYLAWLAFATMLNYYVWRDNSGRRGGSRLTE

Turning to `CCCN(CCC)C(=O)C(=O)c1c(-c2ccc([N+](=O)[O-])cc2)n(C)c2ccccc12`, on Translocator protein, the Ki (commonly a measure of affinity in units of concentration, obtained from inhibition or displacement) was found to be 5.7 nM.

On to `CCCCCCN(CCCCCC)C(=O)C(=O)c1c(-c2ccc(F)cc2)[nH]c2ccccc12`, for which the outcome in data set [1] was inactive.

Turning to `CCCCCCN(CCCCCC)C(=O)C(=O)c1c(-c2ccc(F)cc2)n(C)c2ccccc12`, the Ki at Translocator protein was 1.07 nM. Also, the outcome in data set [1] was inactive.

Consider `CCCN(CCC)C(=O)C(=O)c1c(-c2ccccc2)n(C)c2ccccc12`, for which the Ki on Translocator protein was 19.5 nM. Besides, the result in data set [1] was inactive.

On to `CCCCN(CC)C(=O)C(=O)c1c(-c2ccccc2)n(C)c2ccccc12`, for which the Ki at Translocator protein came out at 60.2 nM. The outcome in data set [1] was inactive.

Molecule `CCCCN(CCCC)C(=O)C(=O)c1c(-c2ccccc2)n(C)c2ccccc12` displayed a Ki at Translocator protein of 0.3 nM. In data set [1], the result was inactive.

`CCCCN(C)C(=O)C(=O)c1c(-c2ccccc2)n(C)c2ccccc12` displayed a Ki at Translocator protein of 190 nM. For the same molecule, in data set [1], the outcome was inactive.

As for `CCCCN(CCCC)C(=O)C(=O)c1c(-c2ccccc2)[nH]c2ccccc12`, the outcome in data set [1] was inactive.

Turning to `CN(Cc1ccccc1)C(=O)C(=O)c1c(-c2ccc(F)cc2)[nH]c2ccccc12`, the affinity at Translocator protein corresponds to a Ki of 1.8 nM. Further, in data set [1], the result was inactive.

`CCCCN(CC)C(=O)C(=O)c1c(-c2ccccc2)[nH]c2ccccc12`: the result in data set [1] was inactive.

Regarding `CCCN(CCC)C(=O)C(=O)c1c(-c2ccccc2)[nH]c2ccc(F)cc12`, the outcome in data set [1] was inactive.

Take `CCCCN(C)C(=O)C(=O)c1c(-c2ccccc2)[nH]c2ccccc12`: the outcome in data set [1] was inactive.

Consider `CCCCCCN(CCCCCC)C(=O)C(=O)c1c(-c2ccccc2)[nH]c2ccccc12`, for which the result in data set [1] was inactive.

With `CCCN(CCC)C(=O)C(=O)c1c(-c2ccccc2)n(C)c2ccc(F)cc12`, the Ki at Translocator protein was 23.7 nM. In addition, the result in data set [1] was inactive.

As to `CCCN(CCC)C(=O)C(=O)c1c(-c2ccc(F)cc2)[nH]c2ccccc12`, the result in data set [1] was inactive.

For the molecule `CCCCCCN(CCCCCC)C(=O)C(=O)c1c(-c2ccccc2)n(C)c2ccccc12`, the Ki on Translocator protein amounted to 0.299 nM. For the same molecule, the result in data set [1] was inactive.

`CCCN(CCC)C(=O)C(=O)c1c(-c2cc[11c]([N+](=O)[O-])cc2)n(C)c2ccccc12` yielded an SUV in data set [2] of 2.32. This molecule came in with a Fu in the data set with Plasma of 0.71%.

`CN(Cc1ccccc1)C(=O)C(=O)c1c(-c2ccc(F)cc2)n(C)c2ccccc12`: the Ki at Translocator protein is 6.77 nM. In data set [1], the result was inactive.

Regarding `CCCCCN(C)C(=O)C(=O)c1c(-c2ccccc2)[nH]c2ccccc12`, the result in data set [1] was inactive.

As to `CCCCCN(C)C(=O)C(=O)c1c(-c2ccccc2)n(C)c2ccccc12`, the affinity on Translocator protein, expressed as Ki, was 38.2 nM. In data set [1], the result was inactive.

Turning to `CCN(Cc1ccccc1)C(=O)C(=O)c1c(-c2ccccc2)n(C)c2ccccc12`, the Ki at Translocator protein was 2.92 nM. Further, the result in data set [1] was inactive.

The molecule `CN(Cc1ccccc1)C(=O)C(=O)c1c(-c2ccccc2)n(C)c2ccccc12` showed an inhibitory constant (Ki) at Translocator protein of 20.9 nM. In addition, the outcome in data set [1] was inactive.

Regarding `CCN(Cc1ccccc1)C(=O)C(=O)c1c(-c2ccccc2)[nH]c2ccccc12`, the outcome in data set [1] was inactive.

On to `CCCN(CCC)C(=O)C(=O)c1c(-c2ccc(F)cc2)n(C)c2ccccc12`, for which the Ki on Translocator protein turned out to be 19.8 nM. In data set [1], the outcome was inactive.

Consider `CN(Cc1ccccc1)C(=O)C(=O)c1c(-c2ccccc2)[nH]c2ccccc12`, for which the Ki on Translocator protein is 12 nM. The outcome in data set [1] was inactive.

Consider `CCCN(CCC)C(=O)C(=O)c1c(-c2ccccc2)[nH]c2ccccc12`, for which, in data set [1], the outcome was inactive.

For the origin of these results see ChEMBL document CHEMBL1649086, “Evaluation of novel N1-methyl-2-phenylindol-3-ylglyoxylamides as a new chemotype of 18 kDa translocator protein-selective ligand suitable for the development of positron emission tomography radioligands” (J Med Chem, 2011).
